Assay results: patent publication EP3064205A1, “Therapeutic use of isomeric forms of 2-(4-chlorophenyl)quinolin-4-yl)(piperidin-2-yl)methanol” (Glionova AB, priority 2015, dated 2016)
Where two headings read alike, the source gives them in different places.

Columns and labels:
Test in all cases: 3D clonogenic assay (PDX)
Type in all cases: cell-based, human
RXF 1220 = conditions: RXF 1220, Renal; for IC50: Homo sapiens
How it was run: (§1)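 Colony counts from automated image analysis of INT-stained soft-agar cultures served as the read-out. Cells were dissociated from subcutaneous PDX tumors and layered in agar. Compound was applied 24 h later at 10 concentrations (top 50 µM) and left on the cells for 8–13 days.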

CXF 1297 = conditions: CXF 1297, Colorectal; for IC50: Homo sapiens
How it was run: as §1

BXF 439 = conditions: BXF 439, Bladder; for IC50: Homo sapiens
How it was run: as §1

HNXF 1853 = conditions: HNXF 1853, Head and Neck; for IC50: Homo sapiens
How it was run: as §1

PAXF 2046 = conditions: PAXF 2046, Pancreas; for IC50: Homo sapiens
How it was run: as §1

BXF 1352 = conditions: BXF 1352, Bladder; for IC50: Homo sapiens
How it was run: as §1

LXFA 297 = conditions: LXFA 297, Lung Adeno; for IC50: Homo sapiens
How it was run: as §1

LXFL 430 = conditions: LXFL 430, Lung Large Cell; for IC50: Homo sapiens
How it was run: as §1

LXFA 623 = conditions: LXFA 623, Lung Adeno; for IC50: Homo sapiens
How it was run: as §1

BXF 1228 = conditions: BXF 1228, Bladder; for IC50: Homo sapiens
How it was run: as §1

OVXF 1544 = conditions: OVXF 1544, Ovarian; for IC50: Homo sapiens
How it was run: as §1

SXFS 117 = conditions: SXFS 117, Sarcoma Soft Tissue; for IC50: Homo sapiens
How it was run: as §1

What does the source list for O[C@H](c1cc(-c2ccc(Cl)cc2)nc2ccccc12)[C@@H]1CCCCN1 [S1, (R)-(2-(4-chlorophenyl)quinolin-4-yl)((S)-piperidin-2-yl)methanol]?
IC50 (RXF 1220; read-out: abs. IC50): 43.3 µM; IC50 (RXF 1220; read-out: rel. IC50): 43.4 µM; b (bottom plateau of concentration-effect curve) (RXF 1220): 0; t (top plateau of concentration-effect curve) (RXF 1220): 99; b (bottom plateau of concentration-effect curve) (CXF 1297): 15; t (top plateau of concentration-effect curve) (CXF 1297): 90; IC50 (CXF 1297; read-out: abs. IC50): 6.42 µM; IC50 (CXF 1297; read-out: rel. IC50): 6.37 µM; b (bottom plateau of concentration-effect curve) (BXF 439): 34; t (top plateau of concentration-effect curve) (BXF 439): 95; IC50 (BXF 439; read-out: abs. IC50): 14 µM; IC50 (BXF 439; read-out: rel. IC50): 12.8 µM; b (bottom plateau of concentration-effect curve) (HNXF 1853): 50; t (top plateau of concentration-effect curve) (HNXF 1853): 106; IC50 (HNXF 1853; read-out: abs. IC50): 50 µM; IC50 (HNXF 1853; read-out: rel. IC50): 8.77 µM; IC50 (PAXF 2046; read-out: abs. IC50): 18.6 µM; IC50 (PAXF 2046; read-out: rel. IC50): 9.45 µM; b (bottom plateau of concentration-effect curve) (PAXF 2046): 38; t (top plateau of concentration-effect curve) (PAXF 2046): 100; b (bottom plateau of concentration-effect curve) (BXF 1352): 0; t (top plateau of concentration-effect curve) (BXF 1352): 97; IC50 (BXF 1352; read-out: abs. IC50): 18.5 µM; IC50 (BXF 1352; read-out: rel. IC50): 19 µM; IC50 (LXFA 297; read-out: abs. IC50): 8.58 µM; IC50 (LXFA 297; read-out: rel. IC50): 8.45 µM; b (bottom plateau of concentration-effect curve) (LXFA 297): 24; t (top plateau of concentration-effect curve) (LXFA 297): 100; IC50 (LXFL 430; read-out: abs. IC50): 9.06 µM; IC50 (LXFL 430; read-out: rel. IC50): 8.98 µM; b (bottom plateau of concentration-effect curve) (LXFL 430): 14; t (top plateau of concentration-effect curve) (LXFL 430): 99; IC50 (LXFA 623; read-out: abs. IC50): 4.63 µM; IC50 (LXFA 623; read-out: rel. IC50): 4.62 µM; b (bottom plateau of concentration-effect curve) (LXFA 623): 10; t (top plateau of concentration-effect curve) (LXFA 623): 92; b (bottom plateau of concentration-effect curve) (BXF 1228): 22; t (top plateau of concentration-effect curve) (BXF 1228): 98; IC50 (BXF 1228; read-out: abs. IC50): 8.12 µM; IC50 (BXF 1228; read-out: rel. IC50): 6.67 µM; IC50 (OVXF 1544; read-out: abs. IC50): 13.5 µM; IC50 (OVXF 1544; read-out: rel. IC50): 12.8 µM; b (bottom plateau of concentration-effect curve) (OVXF 1544): 22; t (top plateau of concentration-effect curve) (OVXF 1544): 107; IC50 (SXFS 117; read-out: abs. IC50): 8.55 µM; IC50 (SXFS 117; read-out: rel. IC50): 8.58 µM; b (bottom plateau of concentration-effect curve) (SXFS 117): 4; t (top plateau of concentration-effect curve) (SXFS 117): 91
